Measured values reported in patent US20040077720A1, “Inhibition of antibody production employing perfluorooctanoic acid or derivatives thereof” (priority 2002, published 2004).
“Also recorded” adds a separate entry of the source.

Key:
MRL/MpJ-Tnfrsf6^1pr-Mice [1] = assay: Treatment of MRL/MpJ-Tnfrsf6 lpr mice (spontaneous SLE-like autoimmune syndrome); clinical observation, urine, autopsy; format: in vivo
Excerpt: As the experimental animal model for studies of inhibition of disease development and the underlying mechanism(s), Applicants have employed MRL-Tnfrs6/1 pr mice, which spontaneously develop high levels of a wide range of antibodies and an SLE-like syndrome, including severe lymphoadrenopathy. The MRL-mouse strain is known to develop a severe autoimmune disease syndrome. In fact, it is known to develop the most severe disease state. Highs levels of circulating autoantibodies, immunocomplexes mediated glomerulonephritis, arthritis and vasculitis are observed. The mice also develop a heavy proliferation of lymph nodes.
(§1) The presence of circulating immunocomplexes is analyzed indirectly by continuous monitoring of the levels of protein, hemoglobin and erythrocytes in the urine of these animals, the quantities of which are directly related to the severity of the immunocomplex-mediated glomerulonephritis which develops. […] The effectiveness of a low dose of the substance and 100% reproducibility argue for a direct inhibition of the mechanism(s) underlying development of the disease.
The symptoms which these mice develop include deterioration of joints and consequent motor difficulties, kidney damage with resulting uremia (retention of fluid) and extreme lymphoadenopathy. This lymphoadenopathy arises from defects in the FAS antigen gene resulting from the lymphoproliferation (1 pr) mutation in MRL-mice. In the final stages of their disease these animals also develop dermal vasculitis. 100% of these mice develop these symptoms.
The degree of renal damage can be monitored on the basis of the level of protein, erythrocytes, hemoglobin and hyalin cylinders in the urine. Lymphocyte proliferation can be assessed from the growth of lymph nodes in the shoulders and groin, as well as along the aorta. Blood and tissue samples are collected for analysis and histopathological examination.
Animal Model: MRL/MpJ-Tnfrsf6^1pr-Mice
This strain develops spontaneous systemic lupus erythematosus-like autoimmune syndrome at or about 8 weeks of age. The syndrome is characterized by massive lymphadenopathy, immune complex glomerulonephritis, arthritis, high level of circulating antibodies, and vasculitis.
Compounds A and B were tested. Compound A was a reference compound and compound B was PFOA. Treatment was initiated at the age of 5 and 8 weeks, respectively. All animals received the respective compounds on a daily basis. A control group of mice without treatment was run in parallel. The following parameters were screened.
2. Investigation of urine sediment.
3. Monitoring of proteinuria.
Parameters followed during the study: 1) Clinical observation; 2) Urine: light microscopy, proteinuria. The following organs were sampled: thymus, lymph nodes, kidney, liver, and spleen. The organs were investigated by histopathology and immunohistopathology.

horse erythrocytes = assay: Immunization with horse erythrocytes after treatment; antibody response; format: in vivo; conditions: mice treated, then immunized with horse erythrocytes
Excerpt: (§2) By inhibiting antibody production, this substance also prevents the formation of immunocomplexes. These treated animals appear completely normal, without joint deterioration, lymphocyte proliferation, dermal vasculitis or immunocomplex-mediated glomerulonephritis.

thymus and spleen = assay: Laboratory studies: thymus and spleen; design: species or system rodent; conditions: in vivo
Excerpt: PFOA belongs to a group of chemicals that induce peroxisome proliferation in the liver in rodent. […] These initial observations led to the inventors' discovery that PFOA could interfere with the immune system, and that PFOA could express immunosuppressive properties.

MRL/MpJ-Tnfrsf6^1pr-Mice [2] = assay: Withdrawal study in treated MRL mice; format: in vivo
Method: as §1, §2
In a separate study compound B was withdrawn from mice treated during 23-26 weeks. The mice were followed for up to 39-42 weeks.

[3] = daily treatment started at age 5 or 8 weeks
[4] = mouse, in vivo, listed as perfluorooctanoic acid

O=C(O)C(F)(F)C(F)(F)C(F)(F)C(F)(F)C(F)(F)C(F)(F)C(F)(F)F [Compound B, Perfluorooctanoic acid]
anasarca (MRL/MpJ-Tnfrsf6^1pr-Mice [1]; at autopsy): no anasarca was detected | survival rate (MRL/MpJ-Tnfrsf6^1pr-Mice [1]; compared to control group and compound A treated mice): clear-cut increase of survival rate | body weight (MRL/MpJ-Tnfrsf6^1pr-Mice [1]; [3]): No body weight gain | enlarged lymph nodes (MRL/MpJ-Tnfrsf6^1pr-Mice [1]; [3]): No | clinical observation: activity / movement (MRL/MpJ-Tnfrsf6^1pr-Mice [1]; mouse, in vivo): very active | fur (MRL/MpJ-Tnfrsf6^1pr-Mice [1]; mouse, in vivo): normal fur | lymphadenopathy (MRL/MpJ-Tnfrsf6^1pr-Mice [1]; mouse, in vivo): No lymphadenothapy was observed | ulcers (MRL/MpJ-Tnfrsf6^1pr-Mice [1]; mouse, in vivo): No ulcers were observed | signs / symptoms of disease during treatment (MRL/MpJ-Tnfrsf6^1pr-Mice [1]; mouse, in vivo, listed as compound B): did not develop any signs of disease | signs / symptoms of disease during treatment (MRL/MpJ-Tnfrsf6^1pr-Mice [1]; [4]): none of these disease symptoms are observed | proteinuria (MRL/MpJ-Tnfrsf6^1pr-Mice [1]; urine, daily treatment started at age 5 or 8 weeks): No | antibody response to foreign antigens (horse erythrocytes): no antibody response | thymus and spleen (thymus and spleen): a reduction of thymus and spleen was observed | disease symptoms when treatment is terminated / substance withdrawn (MRL/MpJ-Tnfrsf6^1pr-Mice [2]; [4]): the animals develop disease symptoms; also recorded: the mice begin to develop typical disease symptoms | time after withdrawal at which proteinuria was observed (MRL/MpJ-Tnfrsf6^1pr-Mice [2]; treated during 23-26 weeks): 5 weeks | weight after withdrawal (MRL/MpJ-Tnfrsf6^1pr-Mice [2]; treated during 23-26 weeks, followed up to 39-42 weeks): an increase in weight was observed | clinical symptoms after withdrawal (MRL/MpJ-Tnfrsf6^1pr-Mice [2]; treated during 23-26 weeks, followed up to the 42 week point): no sign of symptoms were observed
